This is an account of results in PubChem BioAssay (NCI).

Some test systems named below: TK-10 renal; SNB-75 CNS; OVCAR-4 ovarian; UO-31 renal; MALME-3M melanoma; SF-268 CNS; NCI-H23 lung; RPMI-8226 leukemia; NCI-H226 lung; HOP-62 NSCLC; SR leukemia; HL-60(TB) leukemia; SK-MEL-28 melanoma; CCRF-CEM leukemia; DU-145 prostate; MDA-N; SK-MEL-5 melanoma; A498 renal; HS 578T breast.
Holding throughout (experiment): NCI tumour cell line growth inhibition, 48 h

Each structure is given as a SMILES string.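 Assay format: 96-well plates, 48-hour exposure. The concentration for full growth arrest is given as TGI.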

As for `C=CC1(C)CCC(C(C)C(=O)C(C=C(C)C)OC(C)=O)C12C(=O)Oc1ccccc1C2=O` (centres undefined), the TGI with TK-10 renal, with SNB-75 CNS, in the assay on OVCAR-4 ovarian, in the assay on UO-31 renal, in the assay with MALME-3M melanoma and with SF-268 CNS was greater than 100 µM throughout. The TGI in the assay with NCI-H23 lung was greater than 100 µM; with RPMI-8226 leukemia it was 68.2 µM; in the assay on NCI-H226 lung, greater than 100 µM; in the assay with HOP-62 NSCLC it was greater than 100 µM; in the assay on SR leukemia, greater than 100 µM; with HL-60(TB) leukemia, 64.6 µM. For the same compound, the TGI in the assay with SK-MEL-28 melanoma and with CCRF-CEM leukemia was greater than 100 µM in each case.

Consider `NCc1ccc(-c2ccc(-c3ccc(-c4ccc(CN)s4)s3)s2)s1`, for which the TGI in the assay on TK-10 renal, in the assay with SNB-75 CNS, in the assay on OVCAR-4 ovarian, in the assay with UO-31 renal, in the assay on MALME-3M melanoma and with NCI-H23 lung was greater than 100 µM each time. For the same compound, the TGI with RPMI-8226 leukemia, with NCI-H226 lung, in the assay on DU-145 prostate, in the assay with MDA-N, in the assay on HOP-62 NSCLC and with HL-60(TB) leukemia was greater than 100 µM in each case. Further, the TGI with SK-MEL-28 melanoma, with SK-MEL-5 melanoma, in the assay on A498 renal and in the assay on CCRF-CEM leukemia was greater than 100 µM throughout.

Consider `CSc1ccc2c(cc1=O)[C@@H](NC(C)=O)CCc1cc(O)c(O)c(O)c1-2`, for which the TGI is 34.6 µM in the assay with TK-10 renal; 53 µM in the assay with SNB-75 CNS; 35.5 µM in the assay with OVCAR-4 ovarian; 42.8 µM in the assay on UO-31 renal; greater than 100 µM in the assay with MALME-3M melanoma; 38.6 µM with SF-268 CNS. Besides, the TGI in the assay on NCI-H23 lung was 44.9 µM; with RPMI-8226 leukemia, greater than 100 µM; with NCI-H226 lung, 33.4 µM; in the assay on DU-145 prostate, greater than 100 µM; with MDA-N it was 61.1 µM; in the assay on HOP-62 NSCLC it was 32.3 µM. Further, the TGI with SR leukemia, in the assay on HL-60(TB) leukemia, in the assay on SK-MEL-28 melanoma, in the assay with SK-MEL-5 melanoma, in the assay on A498 renal and in the assay on CCRF-CEM leukemia was greater than 100 µM each time.

As to `CC1=C2C(O)C(C(C)C(=O)NCC(C)C)CCC2(C)C=CC1=O` (centres undefined), the TGI with SNB-75 CNS, with OVCAR-4 ovarian, in the assay with UO-31 renal, in the assay on SF-268 CNS, with NCI-H23 lung and in the assay on RPMI-8226 leukemia was greater than 100 µM throughout. The TGI in the assay with NCI-H226 lung, in the assay on HOP-62 NSCLC, in the assay with HL-60(TB) leukemia, with SK-MEL-28 melanoma, with SK-MEL-5 melanoma and with A498 renal was greater than 100 µM each time. Further, in the assay on CCRF-CEM leukemia, the TGI was greater than 100 µM.

`COc1c2c(c(OC)c3c1c(=O)c1ccccc1n3C)OCO2`: the TGI in the assay on TK-10 renal, in the assay on SNB-75 CNS, in the assay with OVCAR-4 ovarian, with UO-31 renal, with HS 578T breast and in the assay on SF-268 CNS was greater than 100 µM throughout. The TGI in the assay on NCI-H23 lung was greater than 100 µM; in the assay with RPMI-8226 leukemia it was greater than 100 µM; in the assay on NCI-H226 lung, greater than 100 µM; in the assay with DU-145 prostate it was greater than 100 µM; in the assay with HOP-62 NSCLC it was greater than 100 µM; in the assay on SR leukemia, greater than 29.7 µM. In addition, the TGI is greater than 25.6 µM in the assay on HL-60(TB) leukemia; greater than 100 µM in the assay on SK-MEL-28 melanoma; 15.7 µM with SK-MEL-5 melanoma; greater than 100 µM in the assay with A498 renal; greater than 31.6 µM in the assay on CCRF-CEM leukemia.

For `CC(=O)/C(C=Nc1c(C)n(C)n(-c2ccccc2)c1=O)=C(/C)O`, the TGI in the assay on TK-10 renal, with SNB-75 CNS, with OVCAR-4 ovarian, in the assay with UO-31 renal, with MALME-3M melanoma and in the assay on NCI-H23 lung was greater than 100 µM in each case. Besides, the TGI with RPMI-8226 leukemia, in the assay with NCI-H226 lung, in the assay on DU-145 prostate, in the assay with SR leukemia, in the assay on HL-60(TB) leukemia and in the assay with SK-MEL-5 melanoma was greater than 100 µM throughout. The TGI with A498 renal and with CCRF-CEM leukemia was greater than 100 µM in each case.

For `CCN(CC)CCn1c(C(C)(C)C)nc2ccccc21`, the TGI in the assay with TK-10 renal, in the assay on SNB-75 CNS, in the assay with OVCAR-4 ovarian, in the assay on UO-31 renal, in the assay on MALME-3M melanoma and with SF-268 CNS was greater than 100 µM each time. The TGI with NCI-H23 lung, with RPMI-8226 leukemia, in the assay with NCI-H226 lung, in the assay on DU-145 prostate, in the assay with MDA-N and in the assay on HOP-62 NSCLC was greater than 100 µM in each case. Further, the TGI with SR leukemia, in the assay with HL-60(TB) leukemia, in the assay with SK-MEL-28 melanoma and with CCRF-CEM leukemia was greater than 100 µM throughout.

Consider `NC(=O)NC(=O)c1cnccn1`, for which the TGI in the assay on TK-10 renal, with OVCAR-4 ovarian, with UO-31 renal, in the assay on MALME-3M melanoma, in the assay on SF-268 CNS and in the assay with NCI-H23 lung was greater than 100 µM each time. Moreover, the TGI in the assay on RPMI-8226 leukemia, in the assay on NCI-H226 lung, with DU-145 prostate, in the assay on MDA-N, in the assay on HOP-62 NSCLC and with SK-MEL-28 melanoma was greater than 100 µM throughout. For the same compound, the TGI in the assay with A498 renal and with CCRF-CEM leukemia was greater than 100 µM throughout.

For `O=C(NN=C1CCN(Cc2ccccc2)CC1)C(O)(c1ccccc1)c1ccccc1`, the TGI with TK-10 renal, in the assay with SNB-75 CNS, with OVCAR-4 ovarian, with UO-31 renal, with MALME-3M melanoma and in the assay with HS 578T breast was greater than 100 µM in each case. The TGI in the assay on SF-268 CNS, in the assay with NCI-H23 lung, in the assay with RPMI-8226 leukemia, in the assay on NCI-H226 lung, in the assay with DU-145 prostate and in the assay on HOP-62 NSCLC was greater than 100 µM in each case. The TGI in the assay on SR leukemia, with HL-60(TB) leukemia, in the assay on SK-MEL-28 melanoma, with SK-MEL-5 melanoma and in the assay with CCRF-CEM leukemia was greater than 100 µM in each case.
